pIC50: −log10 of the molar value.
Target: FAK kinase (catalytic construct FAK(410-689)) (Homo sapiens (Human), UniProt Q05397)
Experiment: FAKcd kinase ELISA (inhibition of poly-glu-tyr phosphorylation by FAK(410-689))
Assay type: biochemical
Details: 50 μM final ATP

FAK kinase (catalytic construct FAK(410-689)), sequence (Q05397 410-689): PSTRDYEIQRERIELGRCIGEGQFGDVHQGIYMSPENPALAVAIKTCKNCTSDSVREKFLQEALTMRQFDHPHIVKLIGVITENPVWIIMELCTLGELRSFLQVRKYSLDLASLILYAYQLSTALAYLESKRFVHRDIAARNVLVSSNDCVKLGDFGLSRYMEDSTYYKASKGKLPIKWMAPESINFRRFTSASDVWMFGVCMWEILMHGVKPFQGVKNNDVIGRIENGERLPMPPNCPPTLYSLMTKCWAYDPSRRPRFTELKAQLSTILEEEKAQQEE

Row | SMILES | pIC50
1 | CN1CCN(C(=O)c2cccc(Nc3ncc(C(F)(F)F)c(NCc4cccnc4N(C)S(C)(=O)=O)n3)c2)CC1 [Compound 199, N-methyl-N-[3-({[2-({3-[(4-methylpiperazin-1-yl)carbonyl]phenyl}amino)-5-(trifluoromethyl)pyrimidin-4-yl]amino}methyl)pyridin-2-yl]methanesulfonamide] | 8.59
2 | Cc1ccc(CNc2nc(Nc3ccc(S(N)(=O)=O)cc3)ncc2C(F)(F)F)c(N(C)S(C)(=O)=O)n1 [Compound 17, 4-({4-[({6-methyl-2-[methyl(methylsulfonyl)amino]pyridin-3-yl}methyl)amino]-5-(trifluoromethyl)pyrimidin-2-yl}amino)benzene-sulfonamide] | 8.90
3 | CC(O)c1ccc(Nc2ncc(C(F)(F)F)c(NCc3cccc(N(C)S(C)(=O)=O)c3)n2)cc1 (stereo not drawn) [Compound 328, N-[3-({[2-{[4-(1-hydroxyethyl)phenyl]amino}-5-(trifluoromethyl)pyrimidin-4-yl]amino}methyl)phenyl]-N-methylmethanesulfonamide] | 9.21
4 | CN(c1ncccc1CNc1nc(Nc2ccc(C(=O)N3CC(F)C3)cc2)ncc1C(F)(F)F)S(C)(=O)=O [Compound 272, N-[3-(([2-({4-[(3-fluoroazetidin-1-yl)carbonyl]phenyl}amino)-5-(trifluoromethyl)pyrimidin-4-yl]amino}methyl)pyridin-2-yl]-N-methylmethane-sulfonamide] | 8.58
5 | CN(c1cccc(CNc2nc(Nc3ccc(S(C)(=O)=O)nc3)ncc2C(F)(F)F)c1)S(C)(=O)=O [Compound 26, N-methyl-N-[3-({[2-{[6-(methylsulfonyl)pyridin-3-yl]amino}-5-(trifluoromethyl)pyrimidin-4-yl]amino}methyl)phenyl] methanesulfonamide] | 6.81
6 | CN(c1ncccc1CNc1nc(Nc2ccc(C(=O)NC3CCCOC3)cc2)ncc1C(F)(F)F)S(C)(=O)=O (stereo not drawn) [Compound 263, 4-({4-(({2-[methyl(methylsulfonyl)amino]pyridin-3-yl}methyl)amino]-5-(trifluoromethyl)pyrimidin-2-yl}amino)-N-(tetrahydro-2H-pyran-3-yl)benzamide] | 9.09
7 | Cc1cnc(N(C)S(C)(=O)=O)c(CNc2nc(Nc3ccccc3)ncc2C(F)(F)F)c1 [Compound 70, N-[3-({[2-anilino-5-(trifluoromethyl)pyrimidin-4-yl]amino}methyl)-5-methylpyridin-2-yl]-N-methylmethanesulfonamide] | 9.22
8 | CS(=O)(=O)c1cccc(CNc2nc(Nc3ccc(S(N)(=O)=O)cc3)ncc2C(F)(F)F)c1 [Compound 18, 4-{[4-{[3-(methylsulfonyl)benzyl]amino}-5-(trifluoromethyl)pyrimidin-2-yl]amino}benzene-sulfonamide] | 7.88
9 | CN(c1cccnc1CNc1nc(Nc2ccccc2)ncc1C(F)(F)F)S(C)(=O)=O [Compound 76, N-[2-({[2-anilino-5-(trifluoromethyl)pyrimidin-4-yl]amino}methyl)pyridin-3-yl]-N-methylmethane-sulfonamide] | 7.03
10 | CNC(=O)c1cccc(Nc2ncc(C(F)(F)F)c(NCc3cccnc3N(C)S(C)(=O)=O)n2)c1 [Compound 86, N-methyl-3-({4-[({2-[methyl(methylsulfonyl)amino]pyridin-3-yl}methyl)amino]-5-(trifluoromethyl)pyrimidin-2-yl}amino)benzamide] | 8.79
11 | CNC(=O)c1ccc(Nc2ncc(C(F)(F)F)c(NCc3cccc(S(C)(=O)=O)c3)n2)cc1 [Compound 52, N-methyl-4-{[4-{[3-(methylsulfonyl)benzyl]amino}-5-(trifluoromethyl)pyrimidin-2-yl]amino}benzamide] | 8.71
12 | Cc1ccc(CNc2nc(Nc3cccc(C(N)=O)c3)ncc2C(F)(F)F)c(N(C)S(C)(=O)=O)n1 [Compound 294, 3-({4-[({6-methyl-2-[methyl(methylsulfonyl)amino]pyridin-3-yl}methyl)amino]-5-(trifluoromethyl)pyrimidin-2-yl}amino)benzamide] | > 9.23
13 | CC(O)c1ccc(Nc2ncc(C(F)(F)F)c(NCc3nccnc3N(C)S(C)(=O)=O)n2)cc1 (stereo not drawn) [Compound 330, N-[3-({[2-{[4-(1-hydroxyethyl)phenyl]amino}-5-(trifluoromethyl)pyrimidin-4-yl]amino}methyl)pyrazin-2-yl]-N-methylmethane-sulfonamide] | 9.12
14 | CN(c1ncccc1CNc1nc(Nc2ccc(CNS(=O)(=O)C(F)(F)F)cc2)ncc1C(F)(F)F)S(C)(=O)=O [Compound 302, 1,1,1-trifluoro-N-[4-({4-[({2-[methyl(methylsulfonyl)amino]pyridin-3-yl}methyl)amino]-5-(trifluoromethyl)pyrimidin-2-yl}amino)benzyl]methanesulfonamide] | 9.00
15 | CN(c1ncccc1CNc1nc(Nc2ccc(C(=O)N3CCC(O)CC3)cc2)ncc1C(F)(F)F)S(C)(=O)=O [Compound 239, N-[3-({[2-({4-[(4-hydroxypiperidin-1-yl)carbonyl]phenyl}amino)-5-(trifluoromethyl)pyrimidin-4-yl]amino}methyl)pyridin-2-yl]-N-methylmethane-sulfonamide] | 9.22
16 | COc1ccc(C(N)=O)cc1Nc1ncc(C(F)(F)F)c(NCc2ncccc2N(C)S(C)(=O)=O)n1 [Compound 306, 4-methoxy-3-({4-[({3-[methyl(methylsulfonyl)amino]pyridin-2-yl}methyl)amino]-5-(trifluoromethyl)pyrimidin-2-yl}amino)benzamide] | 9.16
17 | CN(c1ncccc1CNc1nc(Nc2ccc(C(=O)N3CCC3)cc2)ncc1C(F)(F)F)S(C)(=O)=O [Compound 253, N-[3-({[2-{[4-(azetidin-1 - ylcarbonyl)phenyl]amino}-5-(trifluoromethyl)pyrimidin-4-yl]amino}methyl)pyridin-2-yl]-N-methylmethane-sulfonarriide] | 9.22
18 | CN(c1ncccc1CNc1nc(Nc2ccc(C(=O)OC(C)(C)C)cc2)ncc1C(F)(F)F)S(C)(=O)=O [Compound 219, tert-butyl 4-({4-[({2-[methyl(methylsulfonyl)amino]pyridin-3-yl}methyl)amino]-5-(trifluoromethyl)pyrimidin-2-yl}amino)benzoate] | 9.22
19 | CN(c1ncccc1CNc1nc(Nc2cccc(C(=O)NC3CCNCC3)c2)ncc1C(F)(F)F)S(C)(=O)=O [Compound 361, 3-({4-[({2-[methyl(methylsulfonyl)amino]pyridin-3-yl}methyl)amino]-5-(trifluoromethyl)pyrimidin-2-yl}amino)-N-piperidin-4-ylbenzamide] | 8.06
20 | CNC(=O)c1ccc(Nc2ncc(C(F)(F)F)c(NCc3cccnc3N(C)S(C)(=O)=O)n2)cc1C [Compound 402, N,2-dimethyl-4-({4-[({2-[methyl(methylsulfonyl)amino]pyridin-3-yl}methyl)amino]-5-(trifluoromethyl)pyrimidin-2-yl}amino)benzamide] | > 9.23
21 | CN(c1ncccc1CNc1nc(Nc2ccc(C#N)c(O)c2)ncc1C(F)(F)F)S(C)(=O)=O [Compound 390, N-{3-[({2-[(4-cyano-3-hydroxyphenyl)amino]-5-(trifluoromethyl)pyrimidin-4-yl}amino)methyl]pyridin-2-yl}-N-methylmethane-sulfonamide] | 9.13
22 | CN(c1ncccc1CNc1nc(NC2CCNCC2)ncc1C(F)(F)F)S(C)(=O)=O [Compound 44, N-methyl-N-[3-({[2-(piperidin-4-ylamino)-5-(trifluoromethyl)pyrimidin-4-yl]amino}methyl)pyridin-2-yl]methanesulfonamide] | 6.73
23 | CC(N)c1ccc(Nc2ncc(C(F)(F)F)c(NCc3nccnc3N(C)S(C)(=O)=O)n2)cc1 (stereo in doubt) [Compound 351, N-[3-({[2-({4-[(1R)-1-aminoethyl]phenyl}amino)-5-(trifluoromethyl)pyrimidin-4-yl]amino}methyl)pyrazin-2-yl]-N-methylmethane-sulfonamide] | 9.21
24 | CN(c1ncccc1CNc1nc(Nc2ccc(C(=O)N3CCCCC3)cc2)ncc1C(F)(F)F)S(C)(=O)=O [Compound 258, N-methyl-N-[3-({[2-{[4-(piperidin-1-ylcarbonyl)phenyl]amino}-5-(trifluoromethyl)pyrimidin-4-yl]amino}methyl)pyridin-2-yl]methanesulfonamide] | 8.75
25 | Cc1ccc(CNc2nc(Nc3ccccc3)ncc2C(F)(F)F)c(N(C)S(C)(=O)=O)c1 [Compound 65, N-[2-({[2-anilino-5-(trifluoromethyl)pyrimidin-4-yl]amino}methyl)-5-methylphenyl]-N-methylmethanesulfonamide] | 9.22
26 | CC1CCN(C(=O)c2ccc(Nc3ncc(C(F)(F)F)c(NCc4cccnc4N(C)S(C)(=O)=O)n3)cc2)CC1 [Compound 265, N-methyl-N-[3-({[2-({4-[(4-methylpiperidin-1-yl)carbonyl]phenyl}amino)-5-(trifluoromethyl)pyrimidin-4-yl]amino}methyl)pyridin-2-yl]methanesulfonamide] | 9.22
27 | CN(c1ncccc1CNc1nc(Nc2ccc(N3CCOCC3)cc2)ncc1C(F)(F)F)S(C)(=O)=O [Compound 291, N-methyl-N-{3-[({2-[(4-morpholin-4-ylphenyl)amino]-5-(trifluoromethyl)pyrimidin-4-yl}amino)methyl]pyridin-2-yl}methanesulfonamide] | > 9.23
28 | Cc1cc(C(N)=O)ccc1Nc1ncc(C(F)(F)F)c(NCc2nccnc2N(C)S(C)(=O)=O)n1 [Compound 344, 3-methyl-4-({4-[({3-[methyl(methylsulfonyl)amino]pyrazin-2-yl}methyl)amino]-5-(trifluoromethyl)pyrimidin-2-yl}amino)benzamide] | 9.05
29 | CN(c1cccnc1CNc1nc(Nc2ccc(C(N)=O)c(F)c2)ncc1C(F)(F)F)S(C)(=O)=O [Compound 331, 2-fluoro-4-({4-[({3-[methyl(methylsulfonyl)amino]pyridin-2-yl}methyl)amino]-5-(trifluoromethyl)pyrimidin-2-yl}amino)benzamide] | 8.75
30 | CC[C@H](CO)NC(=O)c1cccc(Nc2ncc(C(F)(F)F)c(NCc3cccnc3N(C)S(C)(=O)=O)n2)c1 [Compound 169, N-[(1R)-1-(hydroxymethyl)propyl]-3-({4-(({2-[methyl(methylsulfonyl)amino]pyridin-3-yl}methyl)amino]-5-(trifluoromethyl)pyrimidin-2-yl}amino)benzamide] | 8.61

From US10450297B2, “Sulfonyl amide derivatives for the treatment of abnormal cell growth” (Pfizer, Inc., priority 2007, dated 2019)
